Data on 24 compounds can be found in ChEMBL document CHEMBL6115010, “Targeting glioma with heteroaromatic alkaloids: A review of potential therapeutics” (Bioorg Med Chem, 2025).

Assay [1] is described as follows: Cytotoxicity against human GSC-3 cells assessed as reduction in cell viability incubated for 72 hrs by MTS assay. The conditions noted are these: GSC-3, 72 h. The format is functional, cell-based. (Formazan colour is commonly taken as a measure of viable cells.)
A short description of assay [2]: Growth inhibition of human U373 MG cells measured after 72 hrs by MTT assay. It is filed as functional, U-373MG ATCC.
Assay [3] relates to U-87 MG. In words: Growth inhibition of human U-87 MG cells measured after 72 hrs by MTT assay. It is filed as functional, U-87MG ATCC.
Another assay relates to Hs68. In words: Growth inhibition of human Hs68 cells measured after 72 hrs by MTT assay. The format is functional.
Assay [4] can be described thus: Cytotoxicity against human CHG-5 cells assessed as reduction in cell viability incubated for 48 hrs by MTT assay. It is filed as functional, cell-based. The conditions noted are these: CHG-5, 48 h.
Assay [5] has as its system CCF-STTG1. As to the kind of experiment: Cytotoxicity against human CCF-STTG1 cells assessed as reduction in cell viability incubated for 48 hrs by MTT assay. The format is functional, cell-based. The conditions noted are these: CCF-STTG1, 48 h.
In assay [6] the test system is U-251. In words: Cytotoxicity against human U-251MG cells assessed as reduction in cell viability incubated for 48 hrs by MTT assay. The format is functional, cell-based. The conditions noted are these: U-251, 48 h.
Assay [7] can be described thus: Cytotoxicity against human SHG-44 cells assessed as reduction in cell viability incubated for 48 hrs by MTT assay. The conditions noted are these: SHG-44, 48 h. The format is functional, cell-based.
In a further assay the test system is SF-268. As to the kind of experiment: Cytotoxicity against human SF-268 cells assessed as reduction in cell viability incubated for 72 hrs by SRB assay. It is filed as functional, cell-based. As to conditions: SF-268, 72 h. (In SRB staining, fixed cells bind dye roughly in proportion to their protein.)
The next assay concerns SF-295. In words: Cytotoxicity against human SF-295 cells assessed as reduction in cell growth incubated for 96 hrs by MTT assay. The format is functional, cell-based. As to conditions: SF-295, 96 h.
For assay [8], the system named is SH-SY5Y. As to the kind of experiment: Cytotoxicity against human SH-SY5Y cells. It is filed as functional, cell-based.
The test system of assay [9] is SH-SY5Y. As to the kind of experiment: Cytotoxicity against human SH-SY5Y cells assessed as reduction in cell growth incubated for 48 hrs by MTT assay. The format is functional, cell-based.
Assay [10] in a line: Cytotoxicity against human SHG-44 cells assessed as reduction in cell growth incubated for 48 hrs by MTT assay. The format is functional, cell-based. The conditions noted are these: SHG-44, 48 h.
A short description of assay [11]: Cytotoxicity against human CHG-5 cells assessed as reduction in cell growth incubated for 48 hrs by MTT assay. It is filed as functional, cell-based. As to conditions: CHG-5, 48 h.
Assay [12] deals with U-251. In words: Cytotoxicity against human U-251MG cells assessed as reduction in cell growth incubated for 48 hrs by MTT assay. The format is functional, cell-based. As to conditions: U-251, 48 h.
A short description of assay [13]: Cytotoxicity against human U-343MG cells assessed as reduction in cell growth incubated for 48 hrs by MTT assay. It is filed as functional, cell-based.
Assay [14] is described as follows: Cytotoxicity against human GL15 cells assessed as reduction in cell growth incubated for 48 hrs by MTT assay. The conditions noted are these: GL15, 48 h. It is filed as functional, cell-based.
In assay [15] the test system is U-87 MG. In words: Antiproliferative activity against human U-87 MG cells assessed as reduction in cell viability at 100 uM incubated for 72 hrs by Prestoblue-reagent based assay relative to control. The format is functional, U-87MG ATCC.
A short description of assay [16]: Cytotoxicity against human CHG-5 cells assessed as reduction in cell growth incubated for 24 hrs by MTT assay. The format is functional, cell-based. As to conditions: CHG-5, 24 h.
Assay [17] has as its system CCF-STTG1. As to the kind of experiment: Cytotoxicity against human CCF-STTG1 cells assessed as reduction in cell growth incubated for 24 hrs by MTT assay. The conditions noted are these: CCF-STTG1, 24 h. The format is functional, cell-based.
The nature of assay [18]: Cytotoxicity against human SHG-44 cells assessed as reduction in cell growth incubated for 24 hrs by MTT assay. It is filed as functional, cell-based. As to conditions: SHG-44, 24 h.
Assay [19] deals with U-251. In words: Cytotoxicity against human U-251MG cells assessed as reduction in cell viability incubated for 24 hrs by MTT assay. The format is functional, cell-based. As to conditions: U-251, 24 h.
A short description of assay [20]: Cytotoxicity against human SHG-44 cells assessed as reduction in cell viability incubated for 24 hrs by MTT assay. It is filed as functional, cell-based. As to conditions: SHG-44, 24 h.
A short description of assay [21]: Cytotoxicity against human CHG-5 cells assessed as reduction in cell viability incubated for 24 hrs by MTT assay. The conditions noted are these: CHG-5, 24 h. It is filed as functional, cell-based.
The subject of assay [22] is CCF-STTG1. As to the kind of experiment: Cytotoxicity against human CCF-STTG1 cells assessed as reduction in cell viability incubated for 24 hrs by MTT assay. The format is functional, cell-based. The conditions noted are these: CCF-STTG1, 24 h.
Assay [23] can be described thus: Cytotoxicity against rat ASK cells assessed as reduction in cell growth by SRB assay. The format is functional. As to conditions: read-out: ED50 (the source's name).
A further assay deals with H4. As to the kind of experiment: Antiproliferative activity against human H4 cells assessed as reduction in cell viability incubated for 72 hrs by Prestoblue-reagent based assay. It is filed as functional. As to conditions: H4, 72 h.

Converted amounts (≈) assume the structure as drawn.

In the case of `COc1cc2c(c(Oc3ccc(CO)cc3)c1OC)C[C@H]1c3c(cc(OC)c(OC)c3-2)CCN1C`, in [1], the IC50 (as a rule, the concentration that inhibits the measured activity by half) worked out at 15.2 mg/L (≈ 31.9 µM).

As for `CO[C@@H]1C=C[C@@]23c4cc5c(cc4C(C)O[C@H]2CN(C)[C@H]3C1)OCO5` (some centres not stated), the concentration for 50% growth inhibition (GI50) – broadly, the concentration giving 50% growth inhibition – was determined as 1 µM in [2], 28 µM in the assay on U-87 MG [3] and 51 µM in the assay on Hs68.

With `CC(=O)O[C@H]1C=C[C@]23c4cc5c(cc4[C@H](OC(C)=O)N(C[C@H]2O)[C@@H]3C1)OCO5`, the half-inhibitory concentration (IC50) in [4] was found to be 30.1 µM; in the assay on CCF-STTG1 [5] it was 27.1 µM; with U-251 [6], 17.4 µM; in assay [7] it was 27.1 µM.

For `C/C=C(\C)[C@H](O)[C@H](C)/C=C(C)/C=C(\C)C/C(C)=C/Cc1nc(OC)c(OC)c(OC)c1C`, in the assay on SF-268, the IC50 came out at 10 µM.

For the compound `COc1cc2c(cc1OC)[C@H](O)[C@@H]1c3c(cc4c(c3-2)OCO4)CC[N@@+]1(C)[O-]`, the concentration for half-maximal inhibition (IC50) in the assay on SF-295 came out at 1.62 mg/L (≈ 4.36 µM).

`COc1cc2c(cc1O)[C@H](OC(C)=O)N1C[C@@H](O)[C@]23C=C[C@H](OC)C[C@@H]13`: the half-maximal inhibitory concentration (IC50) in assay [4] turned out to be 29.4 µM; with CCF-STTG1 [5], 29.4 µM; in the assay on U-251 [6], 17.4 µM; in assay [7] it was 27.1 µM.

Compound `N#Cc1cnc2cccc(O)c2c1O` had a 50% inhibitory concentration (IC50) in the assay on SH-SY5Y [8] of 62.6 µM.

In the case of `COc1cc2c(c(Oc3ccc(C=O)cc3)c1OC)-c1c(OC)c(OC)cc3ccnc(c13)C2=O`, the IC50 in assay [1] was found to be 15.5 mg/L (≈ 32.8 µM).

`CN1C(=O)C(=O)NC[C@@H]1CNc1ccc(C(=O)O)cc1` displayed a 50% inhibitory concentration (IC50) in the assay on SH-SY5Y [8] of 54.3 µM.

For `CN[C@H]1C[C@H](OC)C=C[C@@]12C(=O)N(CCCC(=O)O)Cc1cc3c(cc12)OCO3`, the 50% inhibitory concentration (IC50) in the assay with SH-SY5Y [9] was 13.7 µM; in assay [10], 10.8 µM; in assay [11], 12.2 µM; with U-251 [12], 11.3 µM; in assay [13], 12.2 µM; in [14], 11.4 µM.

With `COc1ccc2c3c([nH]c2c1)[C@@H](C)NCC3`, the inhibition (commonly the relative decrease from the control value, in per cent) at 100 µM in the assay on U-87 MG [15] was determined as 38%.

As to `COc1ccc2c(c1OC)-c1c(OC)c(O)cc3c1[C@H](C2)[N@+](C)([O-])CC3`, the half-inhibitory concentration (IC50) in [16] amounted to 83.7 µM; in the assay on CCF-STTG1 [17] it was 81.8 µM; in assay [18] it was 83.7 µM.

For `CO[C@H]1C=C[C@]23c4cc5c(cc4[C@H](OC(C)=O)N(C[C@H]2O)[C@@H]3C1)OCO5`, the IC50 in assay [4] is 30 µM; with CCF-STTG1 [5], 27.1 µM; with U-251 [6], 15.8 µM; in [7] it was 28.3 µM.

With `CC(=O)O[C@@H]1C2C3C[C@H]4C5=Nc6ccccc6[C@]51C[C@@H]2[N+]4([O-])[C@@H](C)[C@@H]3C(=O)O` (some centres not stated), the IC50 in the assay on U-251 [19] was 9.7 µM; in assay [20], 9.2 µM; in assay [21] it was 12.1 µM; in the assay on CCF-STTG1 [22], 11.4 µM.

Take `CO[C@@H]1C=C[C@@]23c4cc5c(cc4CN(CCc4ccccc4)[C@@H]2CN(C)[C@H]3C1)OCO5`: the IC50 with SH-SY5Y [9] was found to be 15.8 µM; in assay [10], 15.4 µM; in assay [11], 17.7 µM; with U-251 [12], 18.4 µM; in [13], 14.6 µM; in [14], 18.9 µM.

On to `[O-][N+]12CCc3cc(O)c(O)c(c31)-c1cc3c(cc1C2)OCO3` (single isomer, unassigned; (+)), for which, in the assay with U-251 [6], the half-maximal inhibitory concentration (IC50) was 93.7 µM.

For the compound `COc1cc2c(cc1OC)-c1c3c(cc4ccnc(c14)C2=O)OCO3` [DICENTRINONE], the EC50 in [23] amounted to 10.2 mg/L (≈ 30.4 µM).

In the case of `COc1ccc2c3c([nH]c2c1)C(C)=NCC3` [HARMALINE], the half-maximal inhibitory concentration (IC50) with H4 was found to be 19.6 µM. Besides, in the assay with U-87 MG [15], the inhibition at 100 µM is 14%.

Turning to `CC1=NCCc2c1[nH]c1cc(O)ccc21` [HARMALOL], the half-maximal inhibitory concentration (IC50) in the assay with H4 came out at 23.7 µM. For the same compound, in the assay on U-87 MG [15], the inhibition at 100 µM was determined as 37%.

Regarding `Cc1cc2nc3[nH]c(=O)[nH]c(=O)c3nc2cc1C` [LUMICHROME], the IC50 with SH-SY5Y [8] worked out at 75.2 µM.

For `c1ccc2c(c1)[nH]c1cnccc12` [NORHARMANE], the half-inhibitory concentration (IC50) in the assay with H4 was found to be 49 µM.

`COc1cc(OC)c2c(c1)C(=O)c1nccc3cc4c(c-2c13)OCO4` [OXODISCOGUATTINE]: in assay [23], the EC50 was 2.11 mg/L (≈ 6.29 µM).

Regarding `C/C=C(\C)[C@H](O)[C@H](C)/C=C(C)/C=C/C/C(C)=C/Cc1nc(OC)c(OC)c(O)c1C` [PIERICIDIN A], in the assay with SF-268, the IC50 worked out at 68.1 µM.

For the compound `COc1c(OC)c(OC)c2c3c(cc4ccccc42)NC(=O)c13` [PIPEROLACTAM C], the EC50 in assay [23] was 12.8 mg/L (≈ 41.3 µM).
